Laboratory results reported in publication PMC11012124, “Synthesis of Novel Triazine-Based Chalcones and 8,9-dihydro-7H-pyrimido[4,5-b][1,4]diazepines as Potential Leads in the Search of Anticancer, Antibacterial and Antifungal Agents” (International Journal of Molecular Sciences, 2024).

Tests used:
COLO 205 = test: cells; conditions: Homo sapiens, COLO 205, 48 h; for CC50: read-out: LC50
786-0 = test: cells; conditions: Homo sapiens, 786-0, 48 h; for CC50: read-out: LC50
HCC-2998 = test: cells; conditions: Homo sapiens, HCC 2998, 48 h; for CC50: read-out: LC50
SK-MEL-28 = test: cells; conditions: Homo sapiens, SK-MEL-28, 48 h; for CC50: read-out: LC50
UO-31 = test: cells; conditions: Homo sapiens, UO-31, 48 h; for CC50: read-out: LC50
T-47D = test: cells; conditions: Homo sapiens, T47D, 48 h; for CC50: read-out: LC50
A498 = test: cells; conditions: Homo sapiens, A498, 48 h; for CC50: read-out: LC50
ACHN = test: cells; conditions: Homo sapiens, 48 h; for CC50: read-out: LC50
HCT-116 = test: cells; conditions: Homo sapiens, HCT-116, 48 h; for CC50: read-out: LC50
LOX IMVI = test: cells; conditions: Homo sapiens, 48 h; for CC50: read-out: LC50, LOX IMVI, 48 h
MDA-MB-231/ATCC = test: cells; conditions: Homo sapiens, MDA-MB-231, 48 h; for CC50: read-out: LC50
OVCAR-5 = test: cells; conditions: Homo sapiens, OVCAR-5, 48 h; for CC50: read-out: LC50
CAKI-1 = test: cells; conditions: Homo sapiens, CAKI-1, 48 h; for CC50: read-out: LC50
[1] = Hemolytic activity, spectrophotometric; assay type: cell-based, human; conditions: human, human red blood cells (huRBC), 5% hematocrit, 200 μg/mL, 37 °C
NCI-H23 = test: cells; conditions: Homo sapiens, NCI-H23, 48 h; for CC50: read-out: LC50
SK-OV-3 = test: cells; conditions: Homo sapiens, SK-OV-3, 48 h; for CC50: read-out: LC50
HOP-92 = test: cells; conditions: Homo sapiens, HOP-92, 48 h; for CC50: read-out: LC50
SW-620 = test: cells; conditions: Homo sapiens, SW-620, 48 h; for CC50: read-out: LC50
MALME-3M = test: cells; conditions: Homo sapiens, 48 h; for CC50: read-out: LC50
HT29 = test: cells; conditions: Homo sapiens, HT-29, 48 h; for CC50: read-out: LC50
RXF 393 = test: cells; conditions: Homo sapiens, RXF 393, 48 h; for CC50: read-out: LC50
IGROV1 = test: cells; conditions: Homo sapiens, IGROV-1, 48 h; for CC50: read-out: LC50
KM12 = test: cells; conditions: Homo sapiens, KM12, 48 h
PC-3 = test: cells; conditions: Homo sapiens, PC-3, 48 h; for CC50: read-out: LC50
MOLT-4 = test: cells; conditions: Homo sapiens, MOLT-4, 48 h; for CC50: read-out: LC50
NCI-H460 = test: cells; conditions: Homo sapiens, NCI-H460, 48 h; for CC50: read-out: LC50
OVCAR-3 = test: cells; conditions: Homo sapiens, OVCAR-3, 48 h; for CC50: read-out: LC50
U251 = test: cells; conditions: Homo sapiens, U-251, 48 h; for GI50: U251, 48 h; for CC50: read-out: LC50
HOP-62 = test: cells; conditions: Homo sapiens, HOP-62, 48 h; for CC50: read-out: LC50
SK-MEL-5 = test: cells; conditions: Homo sapiens, SK-MEL-5, 48 h; for CC50: read-out: LC50
SF-295 = test: cells; conditions: Homo sapiens, SF-295, 48 h; for CC50: read-out: LC50
SK-MEL-2 = test: cells; conditions: Homo sapiens, SK-MEL-2, 48 h; for CC50: read-out: LC50
SF-268 = test: cells; conditions: Homo sapiens, SF-268, 48 h; for CC50: read-out: LC50
EKVX = test: cells; conditions: Homo sapiens, 48 h; for CC50: read-out: LC50
K-562 = test: cells; conditions: Homo sapiens, K562, 48 h; for GI50: K-562, 48 h; for CC50: read-out: LC50
A549/ATCC = test: cells; conditions: Homo sapiens, A549, 48 h; for CC50: read-out: LC50
CCRF-CEM = test: cells; conditions: Homo sapiens, 48 h; for CC50: read-out: LC50
HCT-15 = test: cells; conditions: Homo sapiens, HCT-15, 48 h; for CC50: read-out: LC50

COc1ccc(/C=C/C(=O)c2ccc(S(=O)(=O)NCCNc3nc(Nc4ccc(F)cc4)nc(N(C)C)n3)cc2)cc1 [24c]
GI50 (COLO 205): 3.46 µM
CC50 (COLO 205): 45.7 µM
GI50 (786-0): 6.33 µM
CC50 (786-0): > 100 µM
GI50 (HCC-2998): 5.47 µM
CC50 (HCC-2998): 43.2 µM
GI50 (SK-MEL-28): 5.23 µM
CC50 (SK-MEL-28): 47.3 µM
GI50 (UO-31): 3.78 µM
CC50 (UO-31): > 100 µM
GI50 (T-47D): 3.78 µM
CC50 (T-47D): > 100 µM
GI50 (A498): 10 µM
CC50 (A498): 87.8 µM
GI50 (ACHN): 3.4 µM
CC50 (ACHN): > 100 µM
GI50 (HCT-116): 1.86 µM
CC50 (HCT-116): 7.07 µM
GI50 (LOX IMVI): 3.23 µM
CC50 (LOX IMVI): 34 µM
GI50 (MDA-MB-231/ATCC): 2.73 µM
CC50 (MDA-MB-231/ATCC): 63 µM
GI50 (OVCAR-5): 8.43 µM
CC50 (OVCAR-5): > 100 µM
GI50 (CAKI-1): 3.34 µM
CC50 (CAKI-1): > 100 µM
hemolysis at 24 h, 200 µg/mL [1]: 0.1%
GI50 (NCI-H23): 10.4 µM
CC50 (NCI-H23): > 100 µM
GI50 (SK-OV-3): 13.9 µM
CC50 (SK-OV-3): > 100 µM
GI50 (HOP-92): 3.25 µM
CC50 (HOP-92): > 100 µM
GI50 (SW-620): 5.42 µM
CC50 (SW-620): 52.3 µM
GI50 (MALME-3M): 10.6 µM
CC50 (MALME-3M): > 100 µM
GI50 (HT29): 1.83 µM
CC50 (HT29): 7.63 µM
GI50 (RXF 393): 2.59 µM
CC50 (RXF 393): 41.7 µM
GI50 (IGROV1): 10.8 µM
CC50 (IGROV1): > 100 µM
GI50 (KM12): 4.01 µM
CC50 (KM12; read-out: LC50): 72 µM
GI50 (PC-3): 3.5 µM
CC50 (PC-3): > 100 µM
GI50 (MOLT-4): 3.12 µM
CC50 (MOLT-4): > 100 µM
GI50 (NCI-H460): 4.11 µM
CC50 (NCI-H460): > 100 µM
GI50 (OVCAR-3): 5.01 µM
CC50 (OVCAR-3): 59.4 µM
GI50 (U251): 6.7 µM
CC50 (U251): 55.3 µM
GI50 (HOP-62): 17.1 µM
CC50 (HOP-62): > 100 µM
GI50 (SK-MEL-5): 3.5 µM
CC50 (SK-MEL-5): 36.4 µM
GI50 (SF-295): 5.05 µM
CC50 (SF-295): 62.4 µM
GI50 (SK-MEL-2): 8.1 µM
CC50 (SK-MEL-2): 53.4 µM
GI50 (SF-268): 4.43 µM
CC50 (SF-268): > 100 µM
GI50 (EKVX): 4.12 µM
CC50 (EKVX): > 100 µM
GI50 (K-562): 3.99 µM
CC50 (K-562): > 100 µM
GI50 (A549/ATCC): 6.54 µM
CC50 (A549/ATCC): > 100 µM
GI50 (CCRF-CEM): 4.09 µM
CC50 (CCRF-CEM): > 100 µM
GI50 (HCT-15): 2.71 µM
CC50 (HCT-15): 27.4 µM

COc1cc(/C=C/C(=O)c2ccc(S(=O)(=O)NCCNc3nc(Nc4ccc(F)cc4)nc(N(C)C)n3)cc2)cc(OC)c1OC [24d]
GI50 (COLO 205): 4.78 µM
CC50 (COLO 205): 86.1 µM
GI50 (786-0): 2.94 µM
CC50 (786-0): 51.9 µM
GI50 (HCC-2998): 1.62 µM
CC50 (HCC-2998): 5.52 µM
GI50 (SK-MEL-28): 6.13 µM
CC50 (SK-MEL-28): 44.6 µM
GI50 (UO-31): 4.45 µM
CC50 (UO-31): 41.4 µM
GI50 (T-47D): 3.48 µM
CC50 (T-47D): > 100 µM
GI50 (A498): 11.3 µM
CC50 (A498): 50.3 µM
GI50 (ACHN): 5.13 µM
CC50 (ACHN): 60.4 µM
GI50 (HCT-116): 1.77 µM
CC50 (HCT-116): 7.66 µM
GI50 (LOX IMVI): 1.71 µM
CC50 (LOX IMVI): 5.62 µM
GI50 (MDA-MB-231/ATCC): 4.41 µM
CC50 (MDA-MB-231/ATCC): 83.4 µM
GI50 (OVCAR-5): 12.9 µM
CC50 (OVCAR-5): 55.4 µM
GI50 (CAKI-1): 5.2 µM
CC50 (CAKI-1): > 100 µM
hemolysis at 24 h, 200 µg/mL [1]: 2.3%
GI50 (NCI-H23): 3.03 µM
CC50 (NCI-H23): 34.9 µM
GI50 (SK-OV-3): 21.8 µM
CC50 (SK-OV-3): > 100 µM
GI50 (HOP-92): 11.5 µM
CC50 (HOP-92): > 100 µM
GI50 (SW-620): 1.95 µM
CC50 (SW-620): 7.43 µM
GI50 (MALME-3M): 11.9 µM
CC50 (MALME-3M): 55.2 µM
GI50 (HT29): 1.93 µM
CC50 (HT29): 6.46 µM
GI50 (RXF 393): 1.45 µM
CC50 (RXF 393): 6.74 µM
GI50 (IGROV1): 16.1 µM
CC50 (IGROV1): 59.8 µM
GI50 (KM12): 2.07 µM
GI50 (PC-3): 3.22 µM
CC50 (PC-3): > 100 µM
GI50 (MOLT-4): 2.74 µM
CC50 (MOLT-4): > 100 µM
GI50 (NCI-H460): 5.12 µM
CC50 (NCI-H460): 50.6 µM
GI50 (OVCAR-3): 6.18 µM
CC50 (OVCAR-3): 98.4 µM
GI50 (U251): 1.81 µM
CC50 (U251): 6.89 µM
GI50 (HOP-62): 14.1 µM
CC50 (HOP-62): 59.9 µM
GI50 (SK-MEL-5): 3.4 µM
CC50 (SK-MEL-5): 36.2 µM
GI50 (SF-295): 2.16 µM
CC50 (SF-295): 11.1 µM
GI50 (SK-MEL-2): 13.5 µM
CC50 (SK-MEL-2): 59.5 µM
GI50 (SF-268): 11.7 µM
CC50 (SF-268): > 100 µM
GI50 (EKVX): 4.85 µM
CC50 (EKVX): 42.2 µM
GI50 (K-562): 2.73 µM
CC50 (K-562): > 100 µM
GI50 (A549/ATCC): 12.2 µM
CC50 (A549/ATCC): 78.6 µM
GI50 (CCRF-CEM): 3.62 µM
CC50 (CCRF-CEM): > 100 µM
GI50 (HCT-15): 1.8 µM
CC50 (HCT-15): 6.57 µM
